# Experimental data: patent US5037830A, “Novel thiouracyl derivatives, pharmaceutical compositions containing them and process for preparing same” (Richter Gedeon Vegyeszeti Gyar RT, priority 1989, dated 1991)
# Where two headings read alike, the source gives them in different places.
# What was measured:
# [1] = test system: gastric ulcer induced by Aspirin plus stress; experiment: Inhibition of the gastric ulcer induced by Aspirin plus stress; format: in vivo, female RG-Wistar rats; conditions: Rattus norvegicus, po; Aspirin plus stress
# Description: After being starved for 24 hours, female RG-Wistar rats weighing 120 to 150 g were orally treated with the compound to be tested and then orally with Aspirin. The animals were sensitized by the aspirin pretreatment and a strong ulceration was induced in the glandular part of stomach of the animals by a subsequent stress (fastening, ducking in water of 22° C. temperature). The ulceration was evaluated as score values from 0 to 2.
# Acute toxicity, rat = conditions: in vivo
# Description: These investigations were carried out in OFI mice and OFA rats after starving for 24 hours. Ten animals were used for each dose. The number of doses was 3 or 4.
# [2] = test system: indomethacin-induced gastric ulcer; experiment: Inhibition of the indomethacin-induced gastric ulcer; format: in vivo, female RG-Wistar rats; conditions: Rattus norvegicus, po; indomethacin 20 mg/kg orally
# Description: After being starved for 24 hours, female RG-Wistar rats were orally treated with the compounds to be tested and then orally with 20 mg/kg of indomethacin after 30 minutes. The evaluation was carried out in relation to the control group and the ED50 values were determined.
# [3] = test system: spontaneous gastric acid secretion; experiment: Gastric acid secretion-inhibiting effect according to Shay's method; format: in vivo, female OFA rats; conditions: for Gastric acid, change / Gastric juice, change: vs control; for Gastric acid, treated: titration with 0.1N NaOH
# Description: After being starved for 24 hours, female OFA rats weighing 130 to 160 g were orally treated with the compounds to be tested. (15 animals were used for each dose.) One hour later laparotomy and pylorus ligature were carried out under ether anaesthesia according to Shay [Gastroenterology 5, 43 (1945)]. After 5 hours the animals were killed by an overdose of ether, their stomaches were excised and the volume and acid content of the gastric juice were determined. The acid was measured by titration with 0.1N NaOH, by using Topfer's indicator.
# [4] = test system: gastric ulcer after pylorus ligature; experiment: Gastric ulcer-inhibiting effect in rats operated according to Shay's method; format: in vivo, female OFA rats; conditions: Rattus norvegicus, po, 18 h, p.o.
# Description: Female OFA rats starved for 24 hours weighing 150 to 160 g were used. (The animals were allowed to drink water ad libitum). The animals were orally treated with the substance to be tested and after 1 hour laparotomy and pylorus ligature according to Shay [Gastroenterology 5, 43 (1945)] were performed under ether anaesthesia. After 18 hours the number and size of ulcers formed on the membranaceous part of the stomach were examined under microscope. The evaluation was made in relation to the control group and the ED50 values were determined. The sizes of the ulcers were expressed as score values from 0.5 to 32.
# [5] = test system: necrosis induced by ethanol containing hydrochloric acid; experiment: Cytoprotective effect (modified Robert's test); format: in vivo; conditions: for Bleedings, change: vs control
# Description: The modified Robert's test [Gastroenterology 17, 761 (1979)] was used. The necrotizing agent (100 ml of abs. ethanol containing 2 ml of concentrated hydrochloric acid) was orally administered in a volume of 0.5 ml/100 g by 30 minutes after giving the compound to be tested. (12 animals were used for each dose.) After 1 hour the animals were killed by ether and the bleedings on the glandular part of their stomach were evaluated.
# [6] = test system: carbachol-induced gastric acid secretion; experiment: Inhibition of the carbachol-induced gastric acid secretion in rats; format: in vivo, male OFA rats; conditions: for Gastric acid, change / Gastric juice, change: vs control; for Gastric juice, treated: carbachol 0.01 mg/kg/hour;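 on Gastric acid, treated: dosed 30 min before a 5 hour experiment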
# Description: (§1) After being starved for 24 hours, male OFA rats weighing 250 to 320 g were anaestethized by 40% urethane (0.5 ml/100 g), then the trachea and jugular vein were cannulated (10 animals were used for each dose). A glass cannula was inserted to the stomach from the direction of the pylorus. The stomach was washed with lukewarm water and then purified by air blown through. The gastric acid secretion was induced by an infusion of histamine (5 mg/kg/hour), or pentagastrin (0.05 mg/kg/hour) or carbachol (0.01 mg/kg/hour), respectively. […]
# [7] = test system: histamine-induced gastric acid secretion; experiment: Inhibition of the histamine-induced gastric acid secretion in rats; format: in vivo, male OFA rats; conditions: for Gastric acid, change / Gastric juice, change: vs control; for Gastric juice, treated: histamine 5 mg/kg/hour;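 on Gastric acid, treated: dosed 30 min before a 5 hour experiment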
# Description: as §1
# [8] = test system: pentagastrin-induced gastric acid secretion; experiment: Inhibition of the pentagastrin-induced gastric acid secretion in rats; format: in vivo, male OFA rats; conditions: for Gastric acid, change / Gastric juice, change: vs control; for Gastric juice, treated: pentagastrin 0.05 mg/kg/hour;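 on Gastric acid, treated: dosed 30 min before a 5 hour experiment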
# Description: as §1
# [9] = test system: acetic acid-induced chronic ulcer; experiment: Recovery-influencing effect on the acetic acid-induced chronic ulcer; format: in vivo, female RG-Wistar rats; conditions: 15 mg/kg oral dose, daily twice for 15 days
# Description: After anaesthesia by ether and laparotomy, 50 μl of 20% acetic acid were injected into the stomach wall of female RG-Wistar rats. After 5 days the animals were orally treated with the compounds to be tested daily twice for 15 days. On the 16th day the animals were killed by ether and the size of the ulcers appearing on the stomach was measured. The grade of recovery was defined in relation to the control group.
compound,measurement,setting,value
"CN(C)c1ccccc1C[S+]([O-])c1nc2ccccc2[nH]1 (stereo not drawn) [NC-1300, 2-[(2-dimethylaminobenzyl)sulfinyl]-1H-benzimidazole, reference compound]",ED50,[1],11.9 mg/kg
same,LD50,"Acute toxicity, rat; ip, female rat",245 mg/kg
same,LD50,"Acute toxicity, rat; ip, male rat",270 mg/kg
same,LD50,"Acute toxicity, rat; po, female rat, precision restricted by solubility",1400 mg/kg
same,LD50,"Acute toxicity, rat; po, male rat, precision restricted by solubility",1300 mg/kg
same,ED50,[2],8.4 mg/kg
same,"Gastric juice, treated",[3]; 10 mg/kg p.o.,6.11 mL
same,"Gastric acid, change",[3]; 10 mg/kg p.o.,-34.0%
same,"Gastric juice, change",[3]; 10 mg/kg p.o.,-16.3%
same,"Gastric acid, treated",[3]; 10 mg/kg p.o.,2.74 mL
same,"Gastric juice, treated",[3]; 20 mg/kg p.o.,4.63 mL
same,"Gastric acid, change",[3]; 20 mg/kg p.o.,-58.2%
same,"Gastric juice, change",[3]; 20 mg/kg p.o.,-17.5%
same,"Gastric acid, treated",[3]; 20 mg/kg p.o.,1.36 mL
same,"Gastric juice, treated",[3]; 50 mg/kg p.o.,4.50 mL
same,"Gastric acid, change",[3]; 50 mg/kg p.o.,-88.1%
same,"Gastric juice, change",[3]; 50 mg/kg p.o.,-23.7%
same,"Gastric acid, treated",[3]; 50 mg/kg p.o.,0.41 mL
same,ED50,"[3]; po, gastric acid, Shay rat",16 mg/kg
same,ED50,[4]; read-out: ED50 related to the number of ulcers,7.4 mg/kg
same,ED50,[4]; read-out: ED50 related to the occurrance of ulcers,14.5 mg/kg
same,ED50,[4]; read-out: ED50 related to the severity of ulcers,5.7 mg/kg
same,"Bleedings, treated",[5]; 5 mg/kg p.o.,84.4 mm
same,"Bleedings, change",[5]; 5 mg/kg p.o.,-21.7%
same,"Bleedings, treated",[5]; 10 mg/kg p.o.,42.25 mm
same,"Bleedings, change",[5]; 10 mg/kg p.o.,-60.8%
same,"Bleedings, treated",[5]; 20 mg/kg p.o.,11.65 mm
same,"Bleedings, change",[5]; 20 mg/kg p.o.,-86.0%
same,ED50,"[5]; po, cytoprotection",8.6 mg/kg
same,"Gastric acid, treated",[6]; 6.25 mg/kg i.p.,1.89 mL
same,"Gastric acid, change",[6]; 6.25 mg/kg i.p.,-31%
same,"Gastric juice, change",[6]; 6.25 mg/kg i.p.,-25%
same,"Gastric juice, treated",[6]; 6.25 mg/kg i.p.,1.55 mL
same,"Gastric acid, treated",[6]; 9 mg/kg i.p.,1.86 mL
same,"Gastric acid, change",[6]; 9 mg/kg i.p.,-32%
same,"Gastric juice, change",[6]; 9 mg/kg i.p.,-24%
same,"Gastric juice, treated",[6]; 9 mg/kg i.p.,1.57 mL
same,"Gastric acid, treated",[6]; 12.5 mg/kg i.p.,0.72 mL
same,"Gastric acid, change",[6]; 12.5 mg/kg i.p.,-74%
same,"Gastric juice, change",[6]; 12.5 mg/kg i.p.,-58%
same,"Gastric juice, treated",[6]; 12.5 mg/kg i.p.,0.87 mL
same,ED50,"[6]; Rattus norvegicus, ip, carbachol-induced, dose column i.p.",9.6 mg/kg
same,"Gastric acid, treated",[7]; 5 mg/kg i.p.,1.97 mL
same,"Gastric acid, change",[7]; 5 mg/kg i.p.,-43%
same,"Gastric juice, change",[7]; 5 mg/kg i.p.,-45%
same,"Gastric juice, treated",[7]; 5 mg/kg i.p.,1.27 mL
same,"Gastric acid, treated",[7]; 10 mg/kg i.p.,0.78 mL
same,"Gastric acid, change",[7]; 10 mg/kg i.p.,-77%
same,"Gastric juice, change",[7]; 10 mg/kg i.p.,-79%
same,"Gastric juice, treated",[7]; 10 mg/kg i.p.,0.49 mL
same,"Gastric acid, treated",[7]; 20 mg/kg i.p.,0.61 mL
same,"Gastric acid, change",[7]; 20 mg/kg i.p.,-82%
same,"Gastric juice, change",[7]; 20 mg/kg i.p.,-78%
same,"Gastric juice, treated",[7]; 20 mg/kg i.p.,0.50 mL
same,ED50,"[7]; Rattus norvegicus, ip, histamine-induced, dose column i.p.",6 mg/kg
same,"Gastric acid, treated",[8]; 5 mg/kg i.p.,1.25 mL
same,"Gastric acid, change",[8]; 5 mg/kg i.p.,-23%
same,"Gastric juice, change",[8]; 5 mg/kg i.p.,-26%
same,"Gastric juice, treated",[8]; 5 mg/kg i.p.,0.92 mL
same,"Gastric acid, treated",[8]; 10 mg/kg i.p.,0.47 mL
same,"Gastric acid, change",[8]; 10 mg/kg i.p.,-74%
same,"Gastric juice, change",[8]; 10 mg/kg i.p.,-70%
same,"Gastric juice, treated",[8]; 10 mg/kg i.p.,0.35 mL
same,"Gastric acid, treated",[8]; 20 mg/kg i.p.,0.32 mL
same,"Gastric acid, change",[8]; 20 mg/kg i.p.,-82%
same,"Gastric juice, change",[8]; 20 mg/kg i.p.,-77%
same,"Gastric juice, treated",[8]; 20 mg/kg i.p.,0.27 mL
same,ED50,"[8]; Rattus norvegicus, ip, pentagastrin-induced, dose column i.p.",7.9 mg/kg
same,increase in the recovery,[9],37%
